From patent US10087229B2, “Peptide compound” (TAKEDA PHARMACEUTICAL COMPANY LIMITED, priority 2013, dated 2018)
Square brackets hold non-standard residues; d marks the D form. Peptide text beside a SMILES is read from it. * marks the point of attachment. Tyr(Nα-amidino) = N=C(N)N[C@@H](Cc1ccc(O)cc1)C(=O)*; αMeF = C[C@](N)(Cc1ccccc1)C(=O)O; 4Pal = N[C@@H](Cc1ccncc1)C(=O)O; Aib = CC(C)(N)C(=O)O

Tested on: male C57BL/6J mouse
Assay: 2-days continuous subcutaneous administration test (feeding suppressive activity)
Assay type: in vivo
Settings: 10 nmol/kg/day, subcutaneous Alzet pump, 2-days cumulative food consumption, control (solvent alone) = 0%
Description: 2-Days Continuous Subcutaneous Administration Test
The feeding suppressive activity of a test compound was examined by the method described below.
The test compound was dissolved in a solvent (50% DMSO) so that sustained release would occur at 10 nmol/kg/day, and the solution was filled in the Alzet Pump (DURECT Corporation, model: 1003D). The pump thus filled with the solution to be administered was immersed in physiological saline for priming, and then used. The pump was embedded by the following method. Each male C57BL/6J mouse at 8-9 weeks of age (20-26° C., allowed to take food and water ad libitum; 12-hour bright-12-hour dark cycle) was anesthetized; the skin in the upper back thereof was incised, and the above-mentioned pump was embedded subcutaneously; the incision was sutured. After weighing, this mouse was returned to the rearing cage (reared alone), and given previously weighed food; food consumption as of 2 days after the start of administration was measured. The food consumption was calculated by subtracting the amount of remaining food from the weight of the food given on the day of the start of administration. When the food consumption of a control group receiving administration of the solvent alone was regarded as a suppression rate of 0%, the feeding suppressive activity of each test compound was evaluated on the basis of 2-days cumulative food consumption after the start of administration. The food intake suppression rate (%) of the test compound was defined as (Food consumption of the control group−Food consumption of the test compound-administered group)/Food consumption of the control group×100.

SMILES | Food intake suppression (%)
CC[C@H](C)[C@H](NC(=O)C(C)(C)NC(=O)[C@H](Cc1ccc(O)cc1)NC(=O)[C@H](CC(=O)O)NC(=O)[C@H](CO)NC(=O)[C@@H](NC(=O)[C@](C)(Cc1ccccc1)NC(=O)[C@@H](NC(=O)CNC(=O)[C@H](CCC(=O)O)NC(=O)C(C)(C)NC(=O)[C@H](Cc1ccc(O)cc1)NC(=N)N)[C@@H](C)O)[C@@H](C)O)C(=O)NC(C)(C)C(=O)N[C@@H](CC(C)C)C(=O)N[C@@H](CC(=O)O)C(=O)N[C@@H](CCCCN)C(=O)N[C@@H](CCC(N)=O)C(=O)N[C@@H](C)C(=O)N[C@@H](CCC(N)=O)C(=O)N[C@@H](C)C(=O)N[C@@H](CCC(=O)O)C(=O)N[C@@H](Cc1ccccc1)C(=O)N[C@H](C(=O)N[C@@H](CCCCN)C(=O)N[C@@H](Cc1c[nH]c2ccccc12)C(=O)N[C@@H](CC(C)C)C(=O)N[C@@H](CC(C)C)C(=O)N[C@@H](CCCCN)C(=O)NCC(=O)NCC(=O)N1CCC[C@H]1C(=O)N[C@@H](CO)C(=O)N[C@@H](CO)C(=O)NCC(=O)N[C@@H](C)C(=O)N1CCC[C@H]1C(=O)N1CCC[C@H]1C(=O)N1CCC[C@H]1C(=O)N[C@@H](CO)C(=O)N[C@@H](CCCCN)C(N)=O)C(C)C [Example 22] ({Tyr(Nα-amidino)}-[Aib]EGT[αMeF]TSDY[Aib]I[Aib]LDKQAQAEFVKWLLKGGPSSGAPPPSK-NH2) | 35.51
CC[C@H](C)[C@H](NC(=O)C(C)(C)NC(=O)[C@H](Cc1ccc(O)cc1)NC(=O)[C@H](CC(=O)O)NC(=O)[C@H](CO)NC(=O)[C@@H](NC(=O)[C@](C)(Cc1ccccc1)NC(=O)[C@@H](NC(=O)CNC(=O)[C@H](CCC(=O)O)NC(=O)C(C)(C)NC(=O)[C@@H](N)Cc1ccc(O)cc1)[C@@H](C)O)[C@@H](C)O)C(=O)N[C@@](C)(Cc1ccccc1)C(=O)N[C@@H](CC(C)C)C(=O)N[C@@H](CC(=O)O)C(=O)N[C@@H](CCCCN)C(=O)N[C@@H](CCC(N)=O)C(=O)N[C@@H](C)C(=O)N[C@@H](CCC(N)=O)C(=O)N[C@@H](C)C(=O)N[C@@H](CCC(=O)O)C(=O)N[C@@H](Cc1ccccc1)C(=O)N[C@H](C(=O)N[C@@H](CCCCN)C(=O)N[C@@H](Cc1c[nH]c2ccccc12)C(=O)N[C@@H](CC(C)C)C(=O)N[C@@H](CC(C)C)C(=O)N[C@@H](CCCCN)C(=O)NCC(=O)NCC(=O)N1CCC[C@H]1C(=O)N[C@@H](CO)C(=O)N[C@@H](CO)C(=O)NCC(=O)N[C@@H](C)C(=O)N1CCC[C@H]1C(=O)N1CCC[C@H]1C(=O)N1CCC[C@H]1C(=O)N[C@@H](CO)C(=O)N[C@@H](CCCCN)C(N)=O)C(C)C [Example 13] (H-Y[Aib]EGT[αMeF]TSDY[Aib]I[αMeF]LDKQAQAEFVKWLLKGGPSSGAPPPSK-NH2) | 57.12
CC[C@H](C)[C@H](NC(=O)[C@H](C)NC(=O)[C@H](Cc1ccc(O)cc1)NC(=O)[C@H](CC(=O)O)NC(=O)[C@H](CO)NC(=O)[C@@H](NC(=O)[C@](C)(Cc1ccccc1)NC(=O)[C@@H](NC(=O)CNC(=O)[C@H](CCC(=O)O)NC(=O)C(C)(C)NC(=O)[C@@H](N)Cc1ccc(O)cc1)[C@@H](C)O)[C@@H](C)O)C(=O)NC(C)(C)C(=O)N[C@@H](CC(C)C)C(=O)N[C@@H](CC(=O)O)C(=O)N[C@@H](CCCCN)C(=O)N[C@@H](CCC(N)=O)C(=O)N[C@@H](C)C(=O)N[C@@H](CCC(N)=O)C(=O)N[C@@H](CO)C(=O)N[C@@H](CCC(=O)O)C(=O)N[C@@H](Cc1ccccc1)C(=O)N[C@H](C(=O)N[C@@H](CCCCN)C(=O)N[C@@H](Cc1c[nH]c2ccccc12)C(=O)N[C@@H](CC(C)C)C(=O)N[C@@H](CC(C)C)C(=O)N[C@@H](CCCCN)C(=O)NCC(=O)NCC(=O)N1CCC[C@H]1C(=O)N[C@@H](CO)C(=O)N[C@@H](CO)C(=O)NCC(=O)N[C@@H](C)C(=O)N1CCC[C@H]1C(=O)N1CCC[C@H]1C(=O)N1CCC[C@H]1C(=O)N[C@@H](CO)C(=O)N[C@@H](CCCCN)C(N)=O)C(C)C [Example 3] (H-Y[Aib]EGT[αMeF]TSDYAI[Aib]LDKQAQSEFVKWLLKGGPSSGAPPPSK-NH2) | 46.49
CC[C@H](C)[C@H](NC(=O)C(C)(C)NC(=O)[C@H](Cc1ccc(O)cc1)NC(=O)[C@H](CC(=O)O)NC(=O)[C@H](CO)NC(=O)[C@@H](NC(=O)[C@](C)(Cc1ccccc1)NC(=O)[C@@H](NC(=O)CNC(=O)[C@H](CCC(=O)O)NC(=O)C(C)(C)NC(=O)[C@@H](N)Cc1ccc(O)cc1)[C@@H](C)O)[C@@H](C)O)C(=O)NC(C)(C)C(=O)N[C@@H](CC(C)C)C(=O)N[C@@H](CC(=O)O)C(=O)N[C@@H](CCCCN)C(=O)N[C@@H](CCC(N)=O)C(=O)N[C@@H](C)C(=O)N[C@@H](CCC(N)=O)C(=O)N[C@@H](CO)C(=O)N[C@@H](CCC(=O)O)C(=O)N[C@@H](Cc1ccccc1)C(=O)N[C@H](C(=O)N[C@@H](CCCCN)C(=O)N[C@@H](Cc1c[nH]c2ccccc12)C(=O)N[C@@H](CC(C)C)C(=O)N[C@@H](CC(C)C)C(=O)N[C@@H](CCCCN)C(=O)NCC(=O)NCC(=O)N1CCC[C@H]1C(=O)N[C@@H](CO)C(=O)N[C@@H](CO)C(=O)NCC(=O)N[C@@H](C)C(=O)N1CCC[C@H]1C(=O)N1CCC[C@H]1C(=O)N1CCC[C@H]1C(=O)N[C@@H](CO)C(N)=O)C(C)C [Example 8] (H-Y[Aib]EGT[αMeF]TSDY[Aib]I[Aib]LDKQAQSEFVKWLLKGGPSSGAPPPS-NH2) | 48.34
CC(C)C[C@H](NC(=O)[C@H](CC(C)C)NC(=O)[C@H](Cc1c[nH]c2ccccc12)NC(=O)[C@H](CCCCN)NC(=O)[C@@H](NC(=O)[C@H](Cc1ccccc1)NC(=O)[C@H](CCC(=O)O)NC(=O)[C@H](C)NC(=O)[C@H](CCC(N)=O)NC(=O)[C@H](C)NC(=O)[C@H](CCC(N)=O)NC(=O)[C@H](CCCCN)NC(=O)[C@H](CC(=O)O)NC(=O)[C@H](CC(C)C)NC(=O)C(C)(C)NC(=O)[C@H](C)NC(=O)C(C)(C)NC(=O)[C@H](Cc1ccc(O)cc1)NC(=O)[C@H](CC(=O)O)NC(=O)[C@H](CO)NC(=O)[C@@H](NC(=O)[C@](C)(Cc1ccccc1)NC(=O)[C@@H](NC(=O)CNC(=O)[C@H](CCC(=O)O)NC(=O)C(C)(C)NC(=O)[C@@H](N)Cc1ccc(O)cc1)[C@@H](C)O)[C@@H](C)O)C(C)C)C(=O)N[C@@H](CCCCN)C(=O)NCC(=O)NCC(=O)N1CCC[C@H]1C(=O)N[C@@H](CO)C(=O)N[C@@H](CO)C(=O)NCC(=O)N[C@@H](C)C(=O)N1CCC[C@H]1C(=O)N1CCC[C@H]1C(=O)N1CCC[C@H]1C(=O)N[C@@H](CO)C(=O)N[C@@H](CCCCN)C(N)=O [Example 10] (H-Y[Aib]EGT[αMeF]TSDY[Aib]A[Aib]LDKQAQAEFVKWLLKGGPSSGAPPPSK-NH2) | 62.04
CC(C)C[C@H](NC(=O)[C@H](CC(C)C)NC(=O)[C@H](Cc1c[nH]c2ccccc12)NC(=O)[C@H](CCCCN)NC(=O)[C@@H](NC(=O)[C@H](Cc1ccccc1)NC(=O)[C@H](CCC(=O)O)NC(=O)[C@H](C)NC(=O)[C@H](CCC(N)=O)NC(=O)[C@H](C)NC(=O)[C@H](CCC(N)=O)NC(=O)[C@H](CCCCN)NC(=O)[C@H](CC(=O)O)NC(=O)[C@H](CC(C)C)NC(=O)C(C)(C)NC(=O)[C@H](Cc1ccncc1)NC(=O)C(C)(C)NC(=O)[C@H](Cc1ccc(O)cc1)NC(=O)[C@H](CC(=O)O)NC(=O)[C@H](CO)NC(=O)[C@@H](NC(=O)[C@](C)(Cc1ccccc1)NC(=O)[C@@H](NC(=O)CNC(=O)[C@H](CCC(=O)O)NC(=O)C(C)(C)NC(=O)[C@@H](N)Cc1ccc(O)cc1)[C@@H](C)O)[C@@H](C)O)C(C)C)C(=O)N[C@@H](CCCCN)C(=O)NCC(=O)NCC(=O)N1CCC[C@H]1C(=O)N[C@@H](CO)C(=O)N[C@@H](CO)C(=O)NCC(=O)N[C@@H](C)C(=O)N1CCC[C@H]1C(=O)N1CCC[C@H]1C(=O)N1CCC[C@H]1C(=O)N[C@@H](CO)C(=O)N[C@@H](CCCCN)C(N)=O [Example 12] (H-Y[Aib]EGT[αMeF]TSDY[Aib][4Pal][Aib]LDKQAQAEFVKWLLKGGPSSGAPPPSK-NH2) | 55.07
